The text below walks through data of ChEMBL document CHEMBL5465560, “Selectivity Literature for EUbOPEN Chemogenomic Library” (2024).

Assay [1] has as its target Ribosomal protein S6 kinase alpha-1 (Homo sapiens, UniProt Q15418). Nature of the assay: Selectivity interaction (KinomeScan (DiscoverX)) EUB0000655a RPS6KA1. The following applies: at 10 µM.
Assay [2] concerns the target Microtubule-associated serine/threonine-protein kinase 1 (Homo sapiens) (UniProt Q9Y2H9). In words: Selectivity interaction (KinomeScan (DiscoverX)) EUB0000045b MAST1.
For assay [3], the target named is Activin receptor type-2B (Homo sapiens) (UniProt Q13705). In words: Selectivity interaction (KinomeScan (DiscoverX)) EUB0000666a ACVR2B. The settings on record: at 10 µM.
Assay [4] deals with T1, Serine/threonine-protein kinase D1 (Homo sapiens) (UniProt Q15139).
T1 sequence (whole entry): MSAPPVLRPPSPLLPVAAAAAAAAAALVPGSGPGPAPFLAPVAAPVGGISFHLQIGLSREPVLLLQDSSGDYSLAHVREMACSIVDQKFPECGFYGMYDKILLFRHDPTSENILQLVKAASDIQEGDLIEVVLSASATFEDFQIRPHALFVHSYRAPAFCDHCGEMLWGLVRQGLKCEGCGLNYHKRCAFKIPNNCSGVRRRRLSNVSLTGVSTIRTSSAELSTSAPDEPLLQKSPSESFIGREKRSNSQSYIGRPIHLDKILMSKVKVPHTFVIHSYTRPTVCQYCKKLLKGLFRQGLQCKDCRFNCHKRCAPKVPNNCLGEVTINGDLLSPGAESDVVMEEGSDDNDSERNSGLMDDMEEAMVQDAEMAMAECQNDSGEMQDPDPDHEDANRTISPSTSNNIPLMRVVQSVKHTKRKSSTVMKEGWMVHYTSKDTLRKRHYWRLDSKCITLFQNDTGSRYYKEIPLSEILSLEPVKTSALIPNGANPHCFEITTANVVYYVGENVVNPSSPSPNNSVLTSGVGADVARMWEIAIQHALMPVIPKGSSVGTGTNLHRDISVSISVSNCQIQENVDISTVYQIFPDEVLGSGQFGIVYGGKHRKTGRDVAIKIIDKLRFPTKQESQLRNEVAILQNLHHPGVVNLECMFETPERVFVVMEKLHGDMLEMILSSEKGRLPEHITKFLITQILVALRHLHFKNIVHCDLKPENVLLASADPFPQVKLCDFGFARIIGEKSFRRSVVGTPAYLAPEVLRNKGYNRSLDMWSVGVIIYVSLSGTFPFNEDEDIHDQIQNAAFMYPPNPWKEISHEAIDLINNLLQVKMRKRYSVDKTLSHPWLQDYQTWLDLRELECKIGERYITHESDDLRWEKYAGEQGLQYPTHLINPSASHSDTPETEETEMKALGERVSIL
Nature of the assay: Selectivity interaction (Kinase panel (Z-LYTE Assay)) EUB0001632a PRKD1. The settings on record: at 10 µM.

The target of assay [5] is T2, Phosphatidylinositol 5-phosphate 4-kinase type-2 alpha (Homo sapiens) (UniProt P48426).
T2 sequence (whole entry): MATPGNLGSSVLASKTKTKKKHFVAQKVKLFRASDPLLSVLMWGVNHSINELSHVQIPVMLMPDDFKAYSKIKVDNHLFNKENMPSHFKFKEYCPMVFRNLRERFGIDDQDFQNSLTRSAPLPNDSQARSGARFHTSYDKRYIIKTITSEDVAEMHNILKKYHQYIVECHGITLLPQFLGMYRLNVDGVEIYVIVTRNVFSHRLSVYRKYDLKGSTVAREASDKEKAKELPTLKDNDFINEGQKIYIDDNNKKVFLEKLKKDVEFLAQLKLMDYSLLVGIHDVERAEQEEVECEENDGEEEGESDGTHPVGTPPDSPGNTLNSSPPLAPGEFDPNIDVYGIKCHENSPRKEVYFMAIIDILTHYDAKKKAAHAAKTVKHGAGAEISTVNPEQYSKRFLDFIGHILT
Nature of the assay: Selectivity interaction (ActivX KiNativ screen (ex vivo kinase selectivity in human PBMCs)) EUB0001619a PIP4K2A. The following applies: PBMC, at 1 µM. Type of assay: cell-based.

Assay [6] deals with Phosphatidylinositol 4,5-bisphosphate 3-kinase catalytic subunit beta isoform (Homo sapiens) (UniProt P42338). Nature of the assay: Selectivity interaction (Kinase panel (literature)) EUB0001199aCl PIK3CB. The following applies: at 1 µM.
Assay [7] has as its target T3, Myosin-IIIb (Homo sapiens) (UniProt Q8WXR4).
T3 sequence (whole entry): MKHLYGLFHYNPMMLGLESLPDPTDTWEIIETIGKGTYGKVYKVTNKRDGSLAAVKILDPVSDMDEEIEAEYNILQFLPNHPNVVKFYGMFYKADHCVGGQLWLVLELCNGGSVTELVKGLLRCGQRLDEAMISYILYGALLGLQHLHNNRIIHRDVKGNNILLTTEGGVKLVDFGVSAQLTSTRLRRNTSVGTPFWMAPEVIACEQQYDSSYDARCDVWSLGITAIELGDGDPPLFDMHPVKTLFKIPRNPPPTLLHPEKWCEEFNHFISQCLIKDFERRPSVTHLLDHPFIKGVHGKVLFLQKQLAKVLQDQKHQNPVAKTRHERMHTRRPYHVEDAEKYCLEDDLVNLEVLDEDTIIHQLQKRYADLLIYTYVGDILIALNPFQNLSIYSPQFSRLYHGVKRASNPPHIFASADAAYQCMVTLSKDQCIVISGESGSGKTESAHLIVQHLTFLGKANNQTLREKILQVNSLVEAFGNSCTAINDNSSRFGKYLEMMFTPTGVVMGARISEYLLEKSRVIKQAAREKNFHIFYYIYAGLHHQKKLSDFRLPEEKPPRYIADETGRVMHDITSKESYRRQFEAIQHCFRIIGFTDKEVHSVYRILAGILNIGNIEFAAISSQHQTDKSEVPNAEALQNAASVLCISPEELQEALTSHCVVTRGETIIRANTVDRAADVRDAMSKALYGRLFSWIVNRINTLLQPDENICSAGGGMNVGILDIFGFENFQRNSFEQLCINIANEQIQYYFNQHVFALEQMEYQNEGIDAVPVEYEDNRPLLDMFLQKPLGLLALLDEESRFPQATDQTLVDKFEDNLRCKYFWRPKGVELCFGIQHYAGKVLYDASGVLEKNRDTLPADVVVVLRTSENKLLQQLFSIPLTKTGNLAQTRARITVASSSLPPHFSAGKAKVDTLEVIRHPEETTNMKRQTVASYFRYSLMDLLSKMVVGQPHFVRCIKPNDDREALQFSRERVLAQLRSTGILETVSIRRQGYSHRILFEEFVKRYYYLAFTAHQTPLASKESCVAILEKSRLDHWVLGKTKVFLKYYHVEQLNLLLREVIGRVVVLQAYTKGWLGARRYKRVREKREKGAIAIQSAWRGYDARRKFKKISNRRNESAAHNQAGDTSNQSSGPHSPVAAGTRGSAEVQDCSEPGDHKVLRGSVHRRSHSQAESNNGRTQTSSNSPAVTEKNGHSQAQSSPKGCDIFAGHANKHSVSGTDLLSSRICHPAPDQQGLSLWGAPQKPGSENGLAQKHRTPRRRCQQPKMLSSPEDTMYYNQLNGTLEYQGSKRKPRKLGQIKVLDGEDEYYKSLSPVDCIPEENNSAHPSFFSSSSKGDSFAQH
Nature of the assay: Selectivity interaction (KinomeScan (DiscoverX)) EUB0000618a MYO3B. The following applies: at 10 µM.

Microtubule-associated serine/threonine-protein kinase 1 (Homo sapiens), sequence (Q9Y2H9 whole entry, looked up): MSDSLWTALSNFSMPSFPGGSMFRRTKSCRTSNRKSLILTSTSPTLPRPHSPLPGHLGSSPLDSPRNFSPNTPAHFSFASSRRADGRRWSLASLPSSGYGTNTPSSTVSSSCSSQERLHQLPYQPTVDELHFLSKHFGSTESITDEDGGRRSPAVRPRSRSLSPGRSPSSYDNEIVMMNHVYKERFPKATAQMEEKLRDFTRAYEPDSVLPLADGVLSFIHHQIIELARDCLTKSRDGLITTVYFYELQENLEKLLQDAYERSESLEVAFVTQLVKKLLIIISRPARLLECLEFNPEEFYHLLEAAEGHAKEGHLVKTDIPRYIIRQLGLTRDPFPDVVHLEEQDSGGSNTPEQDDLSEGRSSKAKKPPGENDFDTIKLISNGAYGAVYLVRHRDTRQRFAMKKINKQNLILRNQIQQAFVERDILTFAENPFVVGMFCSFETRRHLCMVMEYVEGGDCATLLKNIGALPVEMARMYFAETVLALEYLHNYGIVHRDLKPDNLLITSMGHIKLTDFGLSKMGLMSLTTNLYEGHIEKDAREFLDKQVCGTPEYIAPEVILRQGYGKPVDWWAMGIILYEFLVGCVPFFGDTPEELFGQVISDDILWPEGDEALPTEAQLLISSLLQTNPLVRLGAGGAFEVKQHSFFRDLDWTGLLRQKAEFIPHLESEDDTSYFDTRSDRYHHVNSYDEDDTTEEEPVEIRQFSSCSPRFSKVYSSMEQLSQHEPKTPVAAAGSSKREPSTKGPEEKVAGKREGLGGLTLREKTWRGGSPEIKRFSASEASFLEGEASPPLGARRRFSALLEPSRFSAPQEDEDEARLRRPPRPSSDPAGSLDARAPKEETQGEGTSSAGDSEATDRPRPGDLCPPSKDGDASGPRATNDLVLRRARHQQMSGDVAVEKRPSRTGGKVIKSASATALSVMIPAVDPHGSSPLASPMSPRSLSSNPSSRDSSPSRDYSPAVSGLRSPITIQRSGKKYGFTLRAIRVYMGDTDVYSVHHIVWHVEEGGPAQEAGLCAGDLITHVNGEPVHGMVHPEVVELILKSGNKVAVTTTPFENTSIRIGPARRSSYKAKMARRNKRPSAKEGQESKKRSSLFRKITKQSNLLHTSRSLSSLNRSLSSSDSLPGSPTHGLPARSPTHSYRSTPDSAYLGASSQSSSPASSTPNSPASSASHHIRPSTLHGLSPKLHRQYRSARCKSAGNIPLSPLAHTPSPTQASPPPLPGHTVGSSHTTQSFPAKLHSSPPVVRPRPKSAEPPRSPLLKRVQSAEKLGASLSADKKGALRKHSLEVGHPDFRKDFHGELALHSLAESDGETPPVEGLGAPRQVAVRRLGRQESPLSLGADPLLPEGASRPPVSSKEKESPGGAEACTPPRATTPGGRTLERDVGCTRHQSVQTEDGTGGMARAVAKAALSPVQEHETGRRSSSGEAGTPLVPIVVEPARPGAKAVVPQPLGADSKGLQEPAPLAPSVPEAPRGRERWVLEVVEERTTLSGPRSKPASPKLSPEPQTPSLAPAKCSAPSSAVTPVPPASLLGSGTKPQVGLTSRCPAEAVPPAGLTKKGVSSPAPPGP
Ribosomal protein S6 kinase alpha-1, sequence (Q15418 whole entry): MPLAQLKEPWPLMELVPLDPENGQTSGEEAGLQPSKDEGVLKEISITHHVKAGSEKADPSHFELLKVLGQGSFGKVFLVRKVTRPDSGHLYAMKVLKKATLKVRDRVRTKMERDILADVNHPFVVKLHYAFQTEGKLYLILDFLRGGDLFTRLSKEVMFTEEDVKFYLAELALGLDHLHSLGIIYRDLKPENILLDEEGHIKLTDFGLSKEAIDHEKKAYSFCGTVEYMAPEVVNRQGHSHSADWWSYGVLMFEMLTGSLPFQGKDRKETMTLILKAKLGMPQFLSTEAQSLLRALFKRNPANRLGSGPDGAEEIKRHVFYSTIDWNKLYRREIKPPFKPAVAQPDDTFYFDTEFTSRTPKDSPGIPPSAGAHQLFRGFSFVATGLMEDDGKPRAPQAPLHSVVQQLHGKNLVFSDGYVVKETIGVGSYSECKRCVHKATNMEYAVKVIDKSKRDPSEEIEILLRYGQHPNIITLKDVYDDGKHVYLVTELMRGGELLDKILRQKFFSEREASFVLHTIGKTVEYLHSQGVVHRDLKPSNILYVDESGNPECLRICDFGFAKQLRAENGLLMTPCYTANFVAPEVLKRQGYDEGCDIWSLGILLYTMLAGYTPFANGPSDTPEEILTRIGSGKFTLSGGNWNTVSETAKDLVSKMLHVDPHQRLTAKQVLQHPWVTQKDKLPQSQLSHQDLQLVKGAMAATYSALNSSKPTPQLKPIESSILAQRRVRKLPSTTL
Phosphatidylinositol 4,5-bisphosphate 3-kinase catalytic subunit beta isoform (Homo sapiens), sequence (P42338 whole entry, looked up, canonical isoform): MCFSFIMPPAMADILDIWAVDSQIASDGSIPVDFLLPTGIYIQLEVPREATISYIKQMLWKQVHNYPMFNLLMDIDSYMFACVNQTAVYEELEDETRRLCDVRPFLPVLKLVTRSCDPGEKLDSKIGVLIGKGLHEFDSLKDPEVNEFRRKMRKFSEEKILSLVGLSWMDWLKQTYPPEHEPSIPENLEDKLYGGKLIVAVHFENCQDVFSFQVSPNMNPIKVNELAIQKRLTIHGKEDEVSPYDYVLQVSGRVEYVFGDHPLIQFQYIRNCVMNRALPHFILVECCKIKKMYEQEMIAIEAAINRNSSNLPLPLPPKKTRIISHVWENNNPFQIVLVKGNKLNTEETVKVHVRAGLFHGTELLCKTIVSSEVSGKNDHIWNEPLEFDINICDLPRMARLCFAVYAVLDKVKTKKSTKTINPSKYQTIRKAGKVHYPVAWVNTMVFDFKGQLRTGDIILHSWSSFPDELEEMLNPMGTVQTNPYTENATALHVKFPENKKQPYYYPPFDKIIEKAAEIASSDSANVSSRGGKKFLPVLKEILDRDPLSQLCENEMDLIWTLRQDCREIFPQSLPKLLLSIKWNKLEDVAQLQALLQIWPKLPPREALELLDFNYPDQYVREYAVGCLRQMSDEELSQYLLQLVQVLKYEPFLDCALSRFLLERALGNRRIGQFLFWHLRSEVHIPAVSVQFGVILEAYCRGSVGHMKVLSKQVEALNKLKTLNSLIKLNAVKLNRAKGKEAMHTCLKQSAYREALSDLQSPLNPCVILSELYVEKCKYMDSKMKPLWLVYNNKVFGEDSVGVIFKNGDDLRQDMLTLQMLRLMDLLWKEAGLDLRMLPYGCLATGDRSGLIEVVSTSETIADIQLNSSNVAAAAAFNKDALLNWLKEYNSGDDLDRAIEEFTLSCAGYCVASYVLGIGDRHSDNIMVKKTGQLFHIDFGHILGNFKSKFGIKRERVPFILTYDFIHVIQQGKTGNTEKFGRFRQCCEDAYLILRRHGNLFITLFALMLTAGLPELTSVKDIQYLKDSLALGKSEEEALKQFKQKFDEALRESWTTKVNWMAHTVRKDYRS
Activin receptor type-2B (Homo sapiens), sequence (Q13705 whole entry): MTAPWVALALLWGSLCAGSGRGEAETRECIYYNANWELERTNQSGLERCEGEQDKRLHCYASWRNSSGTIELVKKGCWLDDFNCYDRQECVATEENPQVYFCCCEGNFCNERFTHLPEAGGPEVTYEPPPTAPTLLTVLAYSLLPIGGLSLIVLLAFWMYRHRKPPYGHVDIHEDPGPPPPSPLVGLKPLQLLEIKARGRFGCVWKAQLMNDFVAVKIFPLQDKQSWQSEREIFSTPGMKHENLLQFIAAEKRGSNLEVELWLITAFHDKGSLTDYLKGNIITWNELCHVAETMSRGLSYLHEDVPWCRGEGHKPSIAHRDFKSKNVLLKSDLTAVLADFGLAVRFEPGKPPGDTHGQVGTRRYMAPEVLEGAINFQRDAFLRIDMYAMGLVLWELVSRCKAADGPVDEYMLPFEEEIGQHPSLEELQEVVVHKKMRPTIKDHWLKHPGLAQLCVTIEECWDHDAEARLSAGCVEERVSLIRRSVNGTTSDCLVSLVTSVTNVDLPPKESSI

The compound `CN(C)CCOc1ccc(-c2nc(-c3ccncc3)c(-c3ccc4c(c3)CC/C4=N\O)[nH]2)cc1` returned a % of control in assay [1] of 91%.
Take `C=CC(=O)Nc1cc(-n2c(=O)ccc3cnc4ccc(-c5ccc(NS(C)(=O)=O)cc5)cc4c32)ccc1C`: the results for the % of control in assay [2] (at 1 µM) and in assay [2] (at 10 µM) were 100% and 94%, respectively.
In assay [3], `O=C(NOC[C@H](O)CO)c1ccc(F)c(F)c1Nc1ccc(I)cc1F` had a % of control of 66%.
The compound `Cn1cc(-n2cnc3c(NCc4nc5cc(Cl)c(Cl)cc5[nH]4)nc(N4CCOCC4)nc32)cn1` showed a % of control in assay [4] of 3.91%.
For the compound `N#Cc1cccc(-c2c[nH]c3ncnc(N4CCOCC4)c23)c1`, the % of inhibition in assay [5] came to 2%.
In the case of `CN1Cc2nccc(-c3cn(C)nc3-c3ccc(F)cc3)c2C1=O`, the % of inhibition in assay [6] stood at 1%.
`O[C@H]1CC[C@H](Nc2ncc3nc(Nc4c(F)cc(F)cc4F)n([C@H]4CCOC4)c3n2)CC1`: the % of control in assay [7] turned out to be 95%.
